Patent publication US11358952B2, “Substituted 4-aminoisoindoline-1,3-dione compounds, compositions thereof, and methods of treatment therewith” (Celgene Corporation, priority 2018, dated 2022)

system: SU-DHL-4 cell line; assay: SU-DHL-4 cell proliferation assay (Cell Titer-Glo viability); assay type: cell-based; conditions: Homo sapiens; cell viability IC50 activity level, DLBCL cell line SU-DHL-4, 120 hours post-treatment; read-out: SU-DHL-4 Act
Outline: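 Viability read by ATP luminescence (Cell Titer-Glo) at the start and after 120 h of growth at 37°C in 5% CO2. DLBCL cells were seeded at 500 per well with compound across 0.5 nM–10 μM in 20 points, 0.1% DMSO. A four-parameter sigmoidal fit gave IC50 as 50% of DMSO control.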

Compound	IC50 [nM]
N#Cc1cccc(C2CN(Cc3ccc(CNc4cccc5c4C(=O)N(C4CCC(=O)NC4=O)C5=O)cc3F)C2)c1 (stereo not shown) [Cpd 120, 3-(1-(4-((2-(2,6-dioxopiperidin-3-yl)-1,3-dioxoisoindolin-4-ylamino)methyl)-2-fluorobenzyl)azetidin-3-yl)benzonitrile]	< 200
N#Cc1cccc(C2CN(Cc3ccc(CNc4cccc5c4C(=O)N(C4CCC(=O)NC4=O)C5=O)c(F)c3)C2)c1 (stereo not shown) [Cpd 121, 3-(1-(4-((2-(2,6-dioxopiperidin-3-yl)-1,3-dioxoisoindolin-4-ylamino)methyl)-3-fluorobenzyl)azetidin-3-yl)benzonitrile]	< 200
CC(C)COC1CCN(Cc2ccc(CNc3cccc4c3C(=O)N(C3CCC(=O)NC3=O)C4=O)cc2)CC1 (stereo not shown) [Cpd 125, 2-(2,6-dioxopiperidin-3-yl)-4-(4-((4-isobutoxypiperidin-1-yl)methyl)benzylamino)isoindoilne-1,3-dione]	200 to 500
O=C1CCC(N2C(=O)c3cccc(NCc4ccc(CN5CCC(OC6CCC6)CC5)cc4)c3C2=O)C(=O)N1 (stereo not shown) [Cpd 126]	200 to 500
O=C1CCC(N2C(=O)c3cccc(NCc4ccc(CN5CCC(Oc6ccccn6)CC5)cc4)c3C2=O)C(=O)N1 (stereo not shown) [Cpd 132, 2-(2,6-dioxopiperidin-3-yl)-4-(4-((4-(pyridin-2-yloxy)piperidin-1-yl)methyl)benzylamino)isoindoline-1,3-dione]	751 to 1000
CC(C)(C)C1CN(Cc2ccc(CNc3cccc4c3C(=O)N(C3CCC(=O)NC3=O)C4=O)c(F)c2)C1 (stereo not shown) [Cpd 134, 4-(4-((3-tert-butylazetidin-1-yl)methyl)-2-fluorobenzylamino)-2-(2,6-dioxopiperidin-3-yl)isoindoline-1,3-dione]	< 200
O=C1CCC(N2C(=O)c3cccc(NCc4ccc(CN5CC6(CC6)C5)cc4F)c3C2=O)C(=O)N1 (stereo not shown) [Cpd 135, 4-(4-(5-azaspiro[2.3]hexan-5-ylmethyl)-2-fluorobenzylamino)-2-(2,6-dioxopiperidin-3-yl)isoindoline-1,3-dione]	200 to 500
O=C1CCC(N2C(=O)c3cccc(NCc4ccc(CN5CC6(CCC6)C5)cc4F)c3C2=O)C(=O)N1 (stereo not shown) [Cpd 137, 4-(4-(2-azaspiro[3.3]heptan-2-ylmethyl)-2-fluorobenzylamino)-2-(2,6-dioxopiperidin-3-yl)isoindoline-1,3-dione]	< 200
NC(=O)c1ccc(N2CCN(Cc3ccc(CNc4cccc5c4C(=O)N(C4CCC(=O)NC4=O)C5=O)c(F)c3)CC2)cc1 (stereo not shown) [Cpd 139, 4-(4-(4-((2-(2,6-dioxopiperidin-3-yl)-1,3-dioxoisoindolin-4-ylamino)methyl)-3-fluorobenzyl)piperazin-1-yl)benzamide]	< 200
CN(C)C(=O)c1ccc(N2CCN(Cc3ccc(CNc4cccc5c4C(=O)N(C4CCC(=O)NC4=O)C5=O)c(F)c3)CC2)cn1 (stereo not shown) [Cpd 140, 5-(4-(4-((2-(2,6-dioxopiperidin-3-yl)-1,3-dioxoisoindolin-4-ylamino)methyl)-3-fluorobenzyl)piperazin-1-yl)-N,N-dimethylpicolinamide]	200 to 500
NC(=O)c1ccc(N2CCN(Cc3ccc(CNc4cccc5c4C(=O)N(C4CCC(=O)NC4=O)C5=O)cc3F)CC2)cc1 (stereo not shown) [Cpd 141, 4-(4-(4-((2-(2,6-dioxopiperidin-3-yl)-1,3-dioxoisoindolin-4-ylamino)methyl)-2-fluorobenzyl)piperazin-1-yl)benzamide]	< 200
CN(C)C(=O)c1ccc(N2CCN(Cc3ccc(CNc4cccc5c4C(=O)N(C4CCC(=O)NC4=O)C5=O)cc3F)CC2)cn1 (stereo not shown) [Cpd 142, 5-(4-(4-((2-(2,6-dioxopiperidin-3-yl)-1,3-dioxoisoindolin-4-ylamino)methyl)-2-fluorobenzyl)piperazin-1-yl)-N,N-dimethylpicolinamide]	501 to 750
CC(C)(C)OC1CCN(Cc2ccc(CNc3cccc4c3C(=O)N(C3CCC(=O)NC3=O)C4=O)c(F)c2)CC1 (stereo not shown) [Cpd 143, 4-(4-((4-tert-butyoxypiperidin-1-yl)methyl)-2-fluorobenzylamino)-2-(2,6-dioxopiperidin-3-yl)isoindoline-1,3-dione]	< 200
O=C1CCC(N2C(=O)c3cccc(NCc4ccc(CN5CCC6(CCCO6)CC5)cc4F)c3C2=O)C(=O)N1 (stereo not shown) [Cpd 144, 4-(4-(1-oxa-8-azaspiro[4.5]decan-8-ylmethyl)-2-fluorobenzylamino)-2-(2,6-dioxopiperidin-3-yl)isoindoline-1,3-dione]	< 200
CC1(C)CCC2(CCN(Cc3ccc(CNc4cccc5c4C(=O)N(C4CCC(=O)NC4=O)C5=O)c(F)c3)CC2)O1 (stereo not shown) [Cpd 145, 4-(4-((2,2-dimethyl-1-oxa-8-azaspiro[4.5]decan-8-yl)methyl)-2-fluorobenzylamino)-2-(2,6-dioxopiperidin-3-yl)isoindoline-1,3-dione]	< 200
CC(C)(C)OC1CCN(Cc2ccc(CNc3cccc4c3C(=O)N(C3CCC(=O)NC3=O)C4=O)cc2F)CC1 (stereo not shown) [Cpd 146, 4-(4-((4-tert-butoxypiperidin-1-yl)methyl)-3-fluorobenzylamino)-2-(2,6-dioxopiperidin-3-yl)isoindoline-1,3-dione]	< 200
O=C1CCC(N2C(=O)c3cccc(NCc4ccc(CN5CCC6(CCCO6)CC5)c(F)c4)c3C2=O)C(=O)N1 (stereo not shown) [Cpd 147, 4-(4-(1-oxa-8-azaspiro[4.5]decan-8-ylmethyl)-3-fluorobenzylamino)-2-(2,6-dioxopiperidin-3-yl)isoindoline-1,3-dione]	200 to 500
CC1(C)CCC2(CCN(Cc3ccc(CNc4cccc5c4C(=O)N(C4CCC(=O)NC4=O)C5=O)cc3F)CC2)O1 (stereo not shown) [Cpd 148, 4-(4-((2,2-dimethyl-1-oxa-8-azaspiro[4.5]decan-8-yl)methyl)-3-fluorobenzylamino)-2-(2,6-dioxopiperidin-3-yl)isoindoline-1,3-dione]	< 200
NC(=O)c1ccc(N2CCN(Cc3ccc(CNc4cccc5c4C(=O)N(C4CCC(=O)NC4=O)C5=O)c(F)c3)CC2)nc1 (stereo not shown) [Cpd 149, 6-(4-(4-((2-(2,6-dioxopiperidin-3-yl)-1,3-dioxoisoindolin-4-ylamino)methyl)-3-fluorobenzyl)piperazin-1-yl)nicotinamide]	< 200
O=C1CCC(N2C(=O)c3cccc(NCc4ccc(CN5CCC6(CCNC6=O)CC5)cc4F)c3C2=O)C(=O)N1 (stereo not shown) [Cpd 150, 2-(2,6-dioxopiperidin-3-yl)-4-(2-fluoro-4-((1-oxo-2,8-diazaspiro[4.5]decan-8-yl)methyl)benzylamino)isoindoline-1,3-dione]	< 200

The remaining lines, values ahead:

IC50 [nM]	Compound
200 to 500	CN1CCC2(CCN(Cc3ccc(CNc4cccc5c4C(=O)N(C4CCC(=O)NC4=O)C5=O)cc3)CC2)C1=O (stereo not shown) [Cpd 122, 2-(2,6-dioxopiperidin-3-yl)-4-(4-((2-methyl-1-oxo-2,8-diazaspiro[4.5]decan-8-yl)methyl)benzylamino)isoindoline-1,3-dione]
200 to 500	O=C1CCC(N2C(=O)c3cccc(NCc4ccc(CN5CCC(OC(F)(F)F)CC5)cc4)c3C2=O)C(=O)N1 (stereo not shown) [Cpd 123, 2-(2,6-dioxopiperidin-3-yl)-4-(4-((4-(trifluoromethoxy)piperidin-1-yl)methyl)benzylamino)isoindoline-1,3-dione]
501 to 750	CCCOC1CCN(Cc2ccc(CNc3cccc4c3C(=O)N(C3CCC(=O)NC3=O)C4=O)cc2)CC1 (stereo not shown) [Cpd 124, 2-(2,6-dioxopiperidin-3-yl)-4-(4-((4-propoxypiperidin-1-yl)methyl)benzylamino)isoindoline-1,3-dione]
751 to 1000	O=C1CCC(N2C(=O)c3cccc(NCc4ccc(CN5CCC(OCC6CC6)CC5)cc4)c3C2=O)C(=O)N1 (stereo not shown) [Cpd 127, 4-(4-((4-(cyclopropylmethoxy)piperidin-1-yl)methyl)benzylamino)-2-(2,6-dioxopiperidin-3-yl)isoindoline-1,3-dione]
200 to 500	CCC1(OC)CCN(Cc2ccc(CNc3cccc4c3C(=O)N(C3CCC(=O)NC3=O)C4=O)cc2)CC1 (stereo not shown) [Cpd 128, 2-(2,6-dioxopiperidin-3-yl)-4-(4-((4-ethyl-4-methoxypiperidin-1-yl)methyl)benzylamino)isoindoline-1,3-dione]
< 200	CC1(C)CCC2(CCN(Cc3ccc(CNc4cccc5c4C(=O)N(C4CCC(=O)NC4=O)C5=O)cc3)CC2)O1 (stereo not shown) [Cpd 129, 4-(4-((2,2-dimethyl-1-oxa-8-azaspiro[4.5]decan-8-yl)methyl)benzylamino)-2-(2,6-dioxopiperidin-3-yl)isoindoline-1,3-dione]
751 to 1000	O=C1CCC(N2C(=O)c3cccc(NCc4ccc(CN5CCC(O)(C(F)(F)F)CC5)cc4)c3C2=O)C(=O)N1 (stereo not shown) [Cpd 130, 2-(2,6-dioxopiperidin-3-yl)-4-(4-((4-hydroxy-4-(trifluoromethyl)piperidin-1-yl)methyl)benzylamino)isoindoline-1,3-dione]
200 to 500	O=C1CCC(N2C(=O)c3cccc(NCc4ccc(CN5CCC(O)(C6CC6)CC5)cc4)c3C2=O)C(=O)N1 (stereo not shown) [Cpd 131, 4-(4-((4-cyclopropyl-4-hydroxypiperidin-1-yl)methyl)benzylamino)-2-(2,6-dioxopiperidin-3-yl)isoindoline-1,3-dione]
200 to 500	CCS(=O)(=O)N1CCN(Cc2ccc(CNc3cccc4c3C(=O)N(C3CCC(=O)NC3=O)C4=O)cc2)CC1 (stereo not shown) [Cpd 133, 2-(2,6-dioxopiperidin-3-yl)-4-(4-((4-(ethylsulfonyl)piperazin-1-yl)methyl)benzylamino)isoindoline-1,3-dione]
751 to 1000	COc1cc(N2CCN(Cc3ccc(CNc4cccc5c4C(=O)N(C4CCC(=O)NC4=O)C5=O)cc3)CC2)ncn1 (stereo not shown) [Cpd 136, 2-(2,6-dioxopiperidin-3-yl)-4-(4-((4-(6-methoxypyrimidin-4-yl)piperazin-1-yl)methyl)benzylamino)isoindoline-1,3-dione]
501 to 750	N#Cc1cccc(N2CCN(Cc3ccc(CNc4cccc5c4C(=O)N(C4CCC(=O)NC4=O)C5=O)cc3)CC2)n1 (stereo not shown) [Cpd 138, 6-(4-(4-((2-(2,6-dioxopiperidin-3-yl)-1,3-dioxoisoindolin-4-ylamino)methyl)benzyl)piperazin-1-yl)picolinonitrile]
